Assay results: patent US8664238B2, “Indenoisoquinolinone derivatives, manufacturing method and medical use thereof” (China Pharmaceutical University, priority 2009, dated 2014)

Test system: Human breast cancer cells MCF-7
Assay: Proliferation of MCF-7 breast cancer cells (MTT detection method)
Assay type: cell-based
Conditions: MCF-7 cells, 48 h incubation with drug, read-out: IC50, inhibition on the proliferation of MCF-7 breast cancer cells
Experimental: The method described in Journal of Medicinal Chemistry. 1997. 40. 1407-1416 has been used and slightly modified. Human breast cancer cells MCF-7, purchased from Nanjing Keygen Biotechnology Inc. MCF-7 cells were incubated in RPMI1640 medium (containing 10% calf serum, 100 U/ml of penicillin and 100 μg/ml of streptomycin) in a 37° C. incubator with 5% CO2. The medium was replaced once about two days and cells were subcultured once every 3-4 days. In the subculturing, the old medium was discarded and the culture was washed twice with D-hanks (for washing off the phenol red in the medium to eliminate the influence of phenol red on the digestion effect of trypsin). Then, a small amount of 0.25% trypsin (25 mg trypsin, 100 ml D-hanks) was added and the contents were paved in the bottle bottom smoothly. […] Trypsin was discarded and the cells were washed with D-hanks, then fresh medium was added and mixed by blowing. The cultures were put into new culture flasks and cultured continuously. After cell count, a small volume of cell suspension was taken and mixed with 0.4% trypan blue in the same volume by blowing with a straw. A little mixture (15 μl-20 μl) was taken and dropped into the interspace between the counting plate and the coverslip without bubbles. […] Dead cells can be stained by trypan blue, while living cells cannot. The counting plate was moved so as to see the counting squares, then unstained cells in four diagonal grids were counted. The cells counted include those on the right line and the top line but not those on the bottom line and the left line. The number of cells/ml=the number of cells in 25% grid×10^4. […] The control group was that in which the anticancer drug was replaced with the same volume of medium and the blank group is 200 μl medium. After incubating for 48 h, 5 mg/ml MTT was added in 20 μl per well and the cultures were further incubated for 4 h. Then, the liquid was suck out carefully and 150 μl of DMSO was added per well. OD values of all wells were measured in 570 nm and the inhibition rate on the cell proliferation and values of IC50 were calculated.

Row | IC50 | SMILES
1 | 8.52 µM | CCN(CC)CCCOc1ccc(-n2c3c(c4ccccc4c2=O)C(=O)c2ccccc2-3)cc1 [If, 6-(4-(3-diethylaminopropoxy)phenyl)-5H-indeno[1,2-c]isoquinoline-5,11(6H)-diketone]
2 | 27.9 µM | CN(C)CCCOc1ccc(-n2c3c(c4ccccc4c2=O)C(=O)c2ccccc2-3)cc1 [Id, 6-(4-(3-dimethylaminopropoxy)phenyl)-5H-indeno[1,2-c]isoquinoline-5,11(6H)-diketone]
3 | 5.82 µM | CN1CCN(CCOc2ccc(-n3c4c(c5ccccc5c3=O)C(=O)c3ccccc3-4)cc2)CC1 [Ig, 6-(4-(2-(4-methylpiperazinyl)ethoxy)phenyl)-5H-indeno[1,2-c]isoquinoline-5,11(6H)-diketone]
4 | 24.7 µM | O=C1c2ccccc2-c2c1c1ccccc1c(=O)n2-c1ccc(OCCCN2CCCC2)cc1 [Ij, 6-(4-(3-pyrrolidinylpropoxy)phenyl)-5H-indeno[1,2-c]isoquinoline-5,11(6H)-diketone]
5 | 2.13 µM | CN(C)CCOc1ccc(-n2c3c(c4ccccc4c2=O)C(=O)c2ccccc2-3)cc1 [Ic, 6-(4-(2-dimethylaminoethoxy)phenyl)-5H-indeno[1,2-c]isoquinoline-5,11(6H)-diketone]
6 | 9.55 µM | O=C1c2ccccc2-c2c1c1ccccc1c(=O)n2-c1ccc(OCCN2CCCCC2)cc1 [Ia, 6-(4-(2-piperidinylethoxy)phenyl)-5H-indeno[1,2-c]isoquinoline-5,11(6H)-diketone]
7 | 10.9 µM | O=C1c2ccccc2-c2c1c1ccccc1c(=O)n2-c1ccc(OCCCN2CCCCC2)cc1 [Ib, 6-(4-(3-piperidinylpropoxy)phenyl)-5H-indeno[1,2-c]isoquinoline-5,11(6H)-diketone]
8 | 79.9 µM | CC(C)N(CCOc1ccc(-n2c3c(c4ccccc4c2=O)C(=O)c2ccccc2-3)cc1)C(C)C [Ik, 6-(4-(2-diisopropylaminoethoxy)phenyl)-5H-indeno[1,2-c]isoquinoline-5,11(6H)-diketone]
9 | 5.89 µM | CN1CCN(CCCOc2ccc(-n3c4c(c5ccccc5c3=O)C(=O)c3ccccc3-4)cc2)CC1 [Ih, 6-(4-(3-(4-methylpiperazinyl)propoxy)phenyl)-5H-indeno[1,2-c]isoquinoline-5,11(6H)-diketone]
10 | 7.8 µM | CCN(CC)CCOc1ccc(-n2c3c(c4ccccc4c2=O)C(=O)c2ccccc2-3)cc1 [Ie, 6-(4-(2-diethylaminoethoxy)phenyl)-5H-indeno[1,2-c]isoquinoline-5,11(6H)-diketone]
11 | 11.3 µM | O=C1c2ccccc2-c2c1c1ccccc1c(=O)n2-c1ccc(OCCN2CCCC2)cc1 [Ii, 6-(4-(2-pyrrolidinylethoxy)phenyl)-5H-indeno[1,2-c]isoquinoline-5,11(6H)-diketone]

Test system: H460 human lung cancer cells
Assay: Proliferation experiment of H460 human lung cancer cells
Assay type: cell-based
Conditions: not given
Experimental: Meanwhile, the proliferation experiment of H460 human lung cancer cells was also conducted.

Row | IC50 | SMILES
12 | 0.63 µM | CCN(CC)CCCOc1ccc(-n2c3c(c4ccccc4c2=O)C(=O)c2ccccc2-3)cc1 [If, 6-(4-(3-diethylaminopropoxy)phenyl)-5H-indeno[1,2-c]isoquinoline-5,11(6H)-diketone]
